Source: patent US8389247B2, “Physiogenomic method for predicting diabetes and metabolic syndromes induced by psychotropic drugs” (priority 2006, dated 2013)

Experiments:
[1] = Outcome variables of patients on each psychotropic drug broken down by demographic factors (Covariates tables); type: in vivo, human
Excerpt: Various SNPs associated with, for example, the observation of various parameters of metabolic syndromes in patients on psychotropic drugs were screened. The endpoints analyzed were the blood levels of LDL, HDL, and glucose; blood pressure; body mass index; waist circumference; and metabolic syndromes index. The physiogenomic model was developed using the following procedure: 1) Establish a covariate model using only the demographic and clinical variables, 2) Screen for associated genetic markers by testing each SNP against the unexplained residual of the covariate model, and 3) Establish a revised model incorporating the significant associations from the SNP screen.

[2] = cited from earlier work

Cc1cc2c(s1)Nc1ccccc1N=C2N1CCN(C)CC1 [olanzapine]
BM (body mass) ([1]; Age 20-30): 87.06 | Glucose (blood glucose level) ([1]; Age 20-30): 88.65 | HDL (HDL cholesterol level) ([1]; Age 20-30): 48.55 | LDL (LDL cholesterol level) ([1]; Age 20-30): 104.10 | Log (TG) (triglyceride level) ([1]; Age 20-30): 5.086 | TC (total cholesterol level) ([1]; Age 20-30): 189.00 | Waist (waist circumference) ([1]; Age 20-30): 99.18 | dBP (diastolic blood pressure) ([1]; Age 20-30): 75.15 | sBP (systolic blood pressure) ([1]; Age 20-30): 118.20 | BM (body mass) ([1]; Age 30-40): 83.17 | Glucose (blood glucose level) ([1]; Age 30-40): 92.29 | HDL (HDL cholesterol level) ([1]; Age 30-40): 47.68 | LDL (LDL cholesterol level) ([1]; Age 30-40): 103.73 | Log (TG) (triglyceride level) ([1]; Age 30-40): 5.168 | TC (total cholesterol level) ([1]; Age 30-40): 189.82 | Waist (waist circumference) ([1]; Age 30-40): 97.82 | dBP (diastolic blood pressure) ([1]; Age 30-40): 74.14 | sBP (systolic blood pressure) ([1]; Age 30-40): 117.32 | BM (body mass) ([1]; Age 40-50): 79.34 | Glucose (blood glucose level) ([1]; Age 40-50): 92.47 | HDL (HDL cholesterol level) ([1]; Age 40-50): 52.40 | LDL (LDL cholesterol level) ([1]; Age 40-50): 107.00 | Log (TG) (triglyceride level) ([1]; Age 40-50): 4.968 | TC (total cholesterol level) ([1]; Age 40-50): 202.00 | Waist (waist circumference) ([1]; Age 40-50): 98.32 | dBP (diastolic blood pressure) ([1]; Age 40-50): 78.10 | sBP (systolic blood pressure) ([1]; Age 40-50): 119.10 | BM (body mass) ([1]; Age 50-60): 95.73 | Glucose (blood glucose level) ([1]; Age 50-60): 86.67 | HDL (HDL cholesterol level) ([1]; Age 50-60): 49.67 | LDL (LDL cholesterol level) ([1]; Age 50-60): 104.00 | Log (TG) (triglyceride level) ([1]; Age 50-60): 5.373 | TC (total cholesterol level) ([1]; Age 50-60): 204.67 | Waist (waist circumference) ([1]; Age 50-60): 105.80 | dBP (diastolic blood pressure) ([1]; Age 50-60): 87.00 | sBP (systolic blood pressure) ([1]; Age 50-60): 136.33 | BM (body mass) ([1]; Age 70-80): 44.40 | Glucose (blood glucose level) ([1]; Age 70-80): 92.00 | HDL (HDL cholesterol level) ([1]; Age 70-80): 68.00 | LDL (LDL cholesterol level) ([1]; Age 70-80): 94.00 | Log (TG) (triglyceride level) ([1]; Age 70-80): 4.159 | TC (total cholesterol level) ([1]; Age 70-80): 174.0 | Waist (waist circumference) ([1]; Age 70-80): 65.00 | dBP (diastolic blood pressure) ([1]; Age 70-80): 66.00 | sBP (systolic blood pressure) ([1]; Age 70-80): 100.0 | BM (body mass) ([1]; Age <20): 65.00 | Glucose (blood glucose level) ([1]; Age <20): 109.00 | HDL (HDL cholesterol level) ([1]; Age <20): 28.00 | LDL (LDL cholesterol level) ([1]; Age <20): 68.00 | Log (TG) (triglyceride level) ([1]; Age <20): 4.787 | TC (total cholesterol level) ([1]; Age <20): 120.00 | Waist (waist circumference) ([1]; Age <20): 96.00 | dBP (diastolic blood pressure) ([1]; Age <20): 77.00 | sBP (systolic blood pressure) ([1]; Age <20): 109.00 | BM (body mass) ([1]; All patients on the drug): 82.90 | Glucose (blood glucose level) ([1]; All patients on the drug): 91.22 | HDL (HDL cholesterol level) ([1]; All patients on the drug): 49.45 | LDL (LDL cholesterol level) ([1]; All patients on the drug): 104.11 | Log (TG) (triglyceride level) ([1]; All patients on the drug): 5.072 | TC (total cholesterol level) ([1]; All patients on the drug): 192.60 | Waist (waist circumference) ([1]; All patients on the drug): 98.21 | dBP (diastolic blood pressure) ([1]; All patients on the drug): 76.12 | sBP (systolic blood pressure) ([1]; All patients on the drug): 118.58 | BM (body mass) ([1]; Gender female): 82.39 | Glucose (blood glucose level) ([1]; Gender female): 97.53 | HDL (HDL cholesterol level) ([1]; Gender female): 51.89 | LDL (LDL cholesterol level) ([1]; Gender female): 118.94 | Log (TG) (triglyceride level) ([1]; Gender female): 4.985 | TC (total cholesterol level) ([1]; Gender female): 212.16 | Waist (waist circumference) ([1]; Gender female): 100.74 | dBP (diastolic blood pressure) ([1]; Gender female): 75.84 | sBP (systolic blood pressure) ([1]; Gender female): 116.79 | BM (body mass) ([1]; Gender male): 83.10 | Glucose (blood glucose level) ([1]; Gender male): 88.98 | HDL (HDL cholesterol level) ([1]; Gender male): 48.48 | LDL (LDL cholesterol level) ([1]; Gender male): 98.54 | Log (TG) (triglyceride level) ([1]; Gender male): 5.107 | TC (total cholesterol level) ([1]; Gender male): 184.85 | Waist (waist circumference) ([1]; Gender male): 97.21 | dBP (diastolic blood pressure) ([1]; Gender male): 76.23 | sBP (systolic blood pressure) ([1]; Gender male): 119.29 | BM (body mass) ([1]; Heritage AA): 87.38 | Glucose (blood glucose level) ([1]; Heritage AA): 98.31 | HDL (HDL cholesterol level) ([1]; Heritage AA): 54.00 | LDL (LDL cholesterol level) ([1]; Heritage AA): 109.14 | Log (TG) (triglyceride level) ([1]; Heritage AA): 5.060 | TC (total cholesterol level) ([1]; Heritage AA): 197.57 | Waist (waist circumference) ([1]; Heritage AA): 96.82 | dBP (diastolic blood pressure) ([1]; Heritage AA): 77.00 | sBP (systolic blood pressure) ([1]; Heritage AA): 119.79 | BM (body mass) ([1]; Heritage Cauc.): 81.98 | Glucose (blood glucose level) ([1]; Heritage Cauc.): 89.24 | HDL (HDL cholesterol level) ([1]; Heritage Cauc.): 48.16 | LDL (LDL cholesterol level) ([1]; Heritage Cauc.): 103.53 | Log (TG) (triglyceride level) ([1]; Heritage Cauc.): 5.115 | TC (total cholesterol level) ([1]; Heritage Cauc.): 193.30 | Waist (waist circumference) ([1]; Heritage Cauc.): 98.17 | dBP (diastolic blood pressure) ([1]; Heritage Cauc.): 75.48 | sBP (systolic blood pressure) ([1]; Heritage Cauc.): 118.38 | BM (body mass) ([1]; Heritage Hisp.): 110.91 | Glucose (blood glucose level) ([1]; Heritage Hisp.): 91.00 | HDL (HDL cholesterol level) ([1]; Heritage Hisp.): 47.00 | LDL (LDL cholesterol level) ([1]; Heritage Hisp.): 147.00 | Log (TG) (triglyceride level) ([1]; Heritage Hisp.): 4.700 | TC (total cholesterol level) ([1]; Heritage Hisp.): 216.00 | Waist (waist circumference) ([1]; Heritage Hisp.): 144.00 | dBP (diastolic blood pressure) ([1]; Heritage Hisp.): 91.00 | sBP (systolic blood pressure) ([1]; Heritage Hisp.): 132.00 | BM (body mass) ([1]; Heritage Other): 60.45 | Glucose (blood glucose level) ([1]; Heritage Other): 93.50 | HDL (HDL cholesterol level) ([1]; Heritage Other): 51.00 | LDL (LDL cholesterol level) ([1]; Heritage Other): 61.50 | Log (TG) (triglyceride level) ([1]; Heritage Other): 4.263 | TC (total cholesterol level) ([1]; Heritage Other): 128.50 | Waist (waist circumference) ([1]; Heritage Other): 86.00 | dBP (diastolic blood pressure) ([1]; Heritage Other): 78.50 | sBP (systolic blood pressure) ([1]; Heritage Other): 108.50 | BM ([1]; patients on the named drug): 82.90 | BMI ([1]; patients on the named drug): 27.12 | Glucose ([1]; patients on the named drug): 91.22 | HDL ([1]; patients on the named drug): 49.45 | LDL ([1]; patients on the named drug): 104.11 | Log (TG) ([1]; patients on the named drug): 5.072 | MSI ([1]; patients on the named drug): −0.1290 | TC ([1]; patients on the named drug): 192.60 | Waist ([1]; patients on the named drug): 98.21 | dBP ([1]; patients on the named drug): 76.12 | sBP ([1]; patients on the named drug): 118.58 | treated patients with induced weight gain, diabetes and other metabolic derangements [2]: 50%
